Assay results from the Kinase Knowledgebase extract (Sharma et al. 2016).

target: MAPK14 (human) (UniProt Q16539); assay: Inhibition of MAPK14 Kinase Activity
Sequence (Q16539 whole entry, looked up): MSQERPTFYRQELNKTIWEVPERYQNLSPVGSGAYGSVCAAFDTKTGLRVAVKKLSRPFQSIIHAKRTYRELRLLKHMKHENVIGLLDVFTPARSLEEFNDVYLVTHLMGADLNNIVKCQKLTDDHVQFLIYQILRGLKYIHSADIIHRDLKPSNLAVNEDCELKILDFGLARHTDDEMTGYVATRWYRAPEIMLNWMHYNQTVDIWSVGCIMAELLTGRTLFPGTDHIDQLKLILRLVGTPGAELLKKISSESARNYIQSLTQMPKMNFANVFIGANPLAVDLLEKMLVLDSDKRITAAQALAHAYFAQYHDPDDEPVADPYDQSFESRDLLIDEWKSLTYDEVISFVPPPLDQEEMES

IC50, ≤ 10 µM:
O=C1CCC(Sc2ccc(F)cc2F)CN1C1C(Cl)CC(CO)CC1Cl (configuration not stated)
Nc1cnc(Cl)c(N2CC(Oc3ccc(F)cc3F)CCC2=O)c1Cl (configuration not stated)
O=C1CCC(Cc2ccc(Cl)cc2)CN1C1C(Cl)CCCC1Cl (configuration not stated)
O=C1CCC(Sc2cccc3ccccc23)CN1c1c(Cl)ccnc1Cl (configuration not stated)
O=C(Cc1ccccc1)Nc1cc(Cl)c(N2CC(Sc3ccc(F)cc3F)CCC2=O)c(Cl)n1 (configuration not stated)
Nc1cnc(Cl)c(N2CC(Cc3ccc(F)cc3F)CCC2=O)c1Cl (configuration not stated)
COc1ccccc1SC1CCC(=O)N(c2c(Cl)cncc2Cl)C1 (configuration not stated)
COCOCc1ccccc1CC1CCC(=O)N(c2c(Cl)cccc2Cl)C1 (configuration not stated)
CN(C)c1cc(Cl)c(N2CC(Cc3ccc(F)cc3F)CCC2=O)c(Cl)c1 (configuration not stated)
COc1ccc(OC2CCC(=O)N(c3c(Cl)ccnc3Cl)C2)cc1 (configuration not stated)
O=C(Cc1ccccc1)Nc1ccc(Cl)c(N2CC(Cc3ccc(F)cc3F)CNC2=O)c1Cl (configuration not stated)
O=C1CCC(Sc2ccc3ccccc3c2)CN1c1c(Cl)ccnc1Cl (configuration not stated)
O=C1OCC(Cc2cc(F)cc(F)c2)CN1c1c(Cl)cccc1Cl (configuration not stated)
O=C1CSC(Cc2ccc(F)cc2F)CN1c1c(Cl)ccc(O)c1Cl (configuration not stated)
CN1CC(Cc2cc(F)cc(F)c2)CN(c2c(Cl)cccc2Cl)C1=O (configuration not stated)
O=C1CCC(Cc2ccc(Cl)cc2Cl)CN1c1c(Cl)csc1Cl (configuration not stated)
O=C1CCC(Oc2ccc(Cl)cc2Cl)CN1c1c(Cl)cncc1Cl (configuration not stated)
CC(=O)Nc1sc(Cl)c(N2CC(Oc3ccc(F)cc3F)CCC2=O)c1Cl (configuration not stated)
O=C1CC/C(=C\c2ccc(F)cc2F)CN1c1c(Cl)cc(Br)cc1Cl
CNc1ncc(Cl)c(N2CC(Sc3ccc(F)cc3F)CCC2=O)c1Cl (configuration not stated)
O=C1CCC(Cc2ccc(F)cc2F)(Cc2ccc(F)cc2F)CN1c1c(Cl)cccc1Cl
CNc1cc(Cl)c(N2CC(Cc3ccc(F)cc3F)CSC2=O)c(Cl)c1 (configuration not stated)
Cc1cc(C)cc(CC2CCC(=O)N(c3c(Cl)ccnc3Cl)C2)c1 (configuration not stated)
Cc1ccccc1OC1CCC(=O)N(c2c(Cl)ccnc2Cl)C1 (configuration not stated)
Cc1ccc(SC2CCC(=O)N(c3c(Cl)cccc3Cl)C2)cc1 (configuration not stated)
Cc1cc(NC(=O)OC(C)(C)C)cc(C)c1N1CC(Cc2ccc(F)cc2F)CNC1=O (configuration not stated)
O=C1CCC(Sc2ccc3ccccc3c2)CN1c1c(Cl)cncc1Cl (configuration not stated)
COc1ccc(SC2CCC(=O)N(c3c(Cl)cncc3Cl)C2)cc1 (configuration not stated)
CNc1ccc(Cl)c(N2CC(Cc3ccc(F)cc3F)CCC2=O)c1Cl (configuration not stated)
O=C(Cc1ccccc1)Nc1ncc(Cl)c(N2CC(Sc3ccc(F)cc3F)CCC2=O)c1Cl (configuration not stated)
O=C1CCC(Cc2cc(F)cc(F)c2)CN1c1c(Cl)cccc1Cl (configuration not stated)
Nc1cc(Cl)c(N2CC(Cc3ccccc3)CCC2=O)c(Cl)c1 (configuration not stated)
O=C1CCC(Oc2ccc(Cl)cc2)CN1c1c(Cl)cncc1Cl (configuration not stated)
O=C(Cc1ccccc1)NC1CCC(Cl)C(N2CC(Cc3ccc(F)cc3F)CCC2=O)C1Cl (configuration not stated)
Nc1ccc(Cl)c(N2CC(Oc3ccc(F)cc3F)CCC2=O)c1Cl (configuration not stated)
O=C1CCC(Sc2ccccc2F)CN1c1c(Cl)csc1Cl (configuration not stated)
O=C1OCC(Cc2ccc(F)cc2F)CN1c1c(Cl)cc(CO)cc1Cl (configuration not stated)
CCOC(=O)CCCC(=O)Nc1cc(Cl)c(N2CC(Cc3ccc(F)cc3F)CCC2=O)c(Cl)c1 (configuration not stated)
O=C1CCC(Sc2cc(F)cc(F)c2)CN1c1c(Cl)cccc1Cl (configuration not stated)
COc1ccc(CC2CCC(=O)N(c3c(Cl)csc3Cl)C2)cc1 (configuration not stated)
Cc1cc(C)cc(OC2CCC(=O)N(c3c(Cl)csc3Cl)C2)c1 (configuration not stated)
O=C1SCC(Cc2ccc(F)cc2)CN1c1c(Cl)cccc1Cl (configuration not stated)
O=C1CCC(Sc2ccc(Cl)cc2)CN1c1c(Cl)csc1Cl (configuration not stated)
CN1CCN(CCNc2cc(Cl)c(N3CC(Cc4ccc(F)cc4F)CCC3=O)c(Cl)c2)CC1 (configuration not stated)
O=C1CCC(Sc2ccc(Cl)cc2)CN1c1c(Cl)cncc1Cl (configuration not stated)
CN1CC(Cc2ccc(F)cc2F)CN(c2c(Cl)cc(N)cc2Cl)C1=O (configuration not stated)
O=C(Cc1ccccc1)Nc1ccc(Cl)c(N2CC(Cc3ccc(F)cc3F)COC2=O)c1Cl (configuration not stated)
Nc1sc(Cl)c(N2CC(Cc3ccc(F)cc3F)CCC2=O)c1Cl (configuration not stated)
O=C1CCC(Oc2ccc(F)cc2F)CN1c1c(Cl)cncc1Cl (configuration not stated)
O=C1CCC(Sc2ccc(F)cc2F)CN1c1c(Cl)cnc(O)c1Cl (configuration not stated)
Cc1ccc(CC2CN(C)C(=O)N(c3c(Cl)cccc3Cl)C2)cc1 (configuration not stated)
O=C1CCC(Cc2ccc(OC(F)(F)F)cc2)CN1c1c(Cl)cccc1Cl (configuration not stated)
O=C1CCC(Cc2ccc(F)cc2F)CN1c1c(Cl)cc(COC(c2ccccc2)(c2ccccc2)c2ccccc2)cc1Cl (configuration not stated)
CNC(=O)c1cc(C)c(N2CC(Cc3ccc(F)cc3F)CCC2=O)c(C)c1 (configuration not stated)
O=C1SCC(Cc2ccc(Cl)cc2)CN1c1c(Cl)cccc1Cl (configuration not stated)
CN(C)CCNc1cc(Cl)c(N2CC(Cc3ccc(F)cc3F)CCC2=O)c(Cl)c1 (configuration not stated)
O=C1CCC(Cc2ccc(F)cc2F)CN1c1c(Cl)cc(NCc2ccccc2O)cc1Cl (configuration not stated)
O=C1NCC(Cc2ccccc2)CN1c1c(Cl)cccc1Cl (configuration not stated)
CNc1cc(Cl)c(N2CC(Cc3ccc(F)cc3F)CNC2=O)c(Cl)c1 (configuration not stated)
COc1ccc(OC2CCC(=O)N(c3c(Cl)cccc3Cl)C2)cc1 (configuration not stated)
O=C1CCC(Cc2cc(F)cc(F)c2)CN1C1C(Cl)CCCC1Cl (configuration not stated)
O=C1CCC(Cc2ccc(F)cc2F)CN1c1c(Cl)csc1Cl (configuration not stated)
O=C1CCC(Cc2ccc(F)cc2F)CN1c1c(Cl)cc(CO)cc1Cl (configuration not stated)
O=C1CCC(Cc2ccc(Cl)cc2)CN1c1c(Cl)csc1Cl (configuration not stated)
O=C1CCC(Oc2ccccc2F)CN1c1c(Cl)csc1Cl (configuration not stated)
O=C1NCC(Cc2ccc(F)cc2F)CN1c1c(Cl)cccc1Cl (configuration not stated)
CC1(C)NC(=O)N(CCNc2cc(Cl)c(N3CC(Cc4ccc(F)cc4F)CCC3=O)c(Cl)c2)C1=O (configuration not stated)
Cc1ccc(SC2CCC(=O)N(c3c(Cl)cncc3Cl)C2)cc1 (configuration not stated)
O=C1[C@@H](O)C[C@@H](Cc2ccc(F)cc2F)CN1c1c(Cl)cccc1Cl
O=C1CCC(Sc2ccc(F)cc2)CN1c1c(Cl)cccc1Cl (configuration not stated)
O=C1CSC(Cc2cccc3ccccc23)CN1c1c(Cl)cccc1Cl (configuration not stated)
Cc1cc(CCCCC=O)cc(C)c1N1CC(Cc2ccc(F)cc2F)CCC1=O (configuration not stated)
NC1CCC(Cl)C(N2CC(Oc3ccc(F)cc3F)CCC2=O)C1Cl (configuration not stated)
O=C1COC(Cc2ccc(F)cc2F)CN1c1c(Cl)cccc1Cl (configuration not stated)
CC(C)(C)OC(=O)N(CCO)c1cc(Cl)c(N2CC(Cc3ccc(F)cc3F)CCC2=O)c(Cl)c1 (configuration not stated)
CNc1cc(Cl)c(N2CC(Oc3ccc(F)cc3F)CCC2=O)c(Cl)c1 (configuration not stated)
O=C1CC[C@@H](Cc2ccc(F)cc2F)CN1c1c(Cl)cccc1Cl
O=C1CCC(Oc2ccc(F)cc2F)CN1c1c(Cl)sc(CO)c1Cl (configuration not stated)
O=C1CCC(Cc2ccc(F)cc2F)CN1C1CCCCC1 (configuration not stated)
O=C1CCC(Oc2ccc(F)cc2F)CN1c1c(Cl)cc(O)nc1Cl (configuration not stated)
Nc1ccc(Cl)c(N2CC(Cc3ccc(F)cc3F)CCC2=O)c1Cl (configuration not stated)
O=C1CCC(Oc2ccc3ccccc3c2)CN1c1c(Cl)cccc1Cl (configuration not stated)
O=C1OCC(Cc2ccc(F)cc2F)CN1c1c(Cl)ccc(O)c1Cl (configuration not stated)
Cc1ccccc1CC1CCC(=O)N(c2c(Cl)ccnc2Cl)C1 (configuration not stated)
CNC1CC(Cl)C(N2CC(Cc3ccc(F)cc3F)CCC2=O)C(Cl)C1 (configuration not stated)
CNc1ccc(Cl)c(N2CC(Oc3ccc(F)cc3F)CCC2=O)c1Cl (configuration not stated)
Cc1ccc(OC2CCC(=O)N(C3C(Cl)CCCC3Cl)C2)c(C)c1 (configuration not stated)
Nc1cc(Cl)c(N2CC(Sc3ccc(F)cc3F)CCC2=O)c(Cl)c1 (configuration not stated)
CN1CC(Cc2ccc(F)cc2F)CN(c2c(Cl)ccc(CO)c2Cl)C1=O (configuration not stated)
COc1ccccc1OC1CCC(=O)N(c2c(Cl)csc2Cl)C1 (configuration not stated)
O=C1CCC(Oc2cc(Cl)cc(Cl)c2)CN1C1C(Cl)CCCC1Cl (configuration not stated)
O=C1CCC(Cc2ccc(Cl)cc2)CN1c1c(Cl)ccnc1Cl (configuration not stated)
Cc1ccc(SC2CCC(=O)N(c3c(Cl)cccc3Cl)C2)c(C)c1 (configuration not stated)
Cc1cc(C)cc(SC2CCC(=O)N(c3c(Cl)cccc3Cl)C2)c1 (configuration not stated)
CNc1cnc(Cl)c(N2CC(Cc3ccc(F)cc3F)CCC2=O)c1Cl (configuration not stated)
CC(=O)NC1CCC(Cl)C(N2CC(Sc3ccc(F)cc3F)CCC2=O)C1Cl (configuration not stated)
O=C1CCC(Sc2ccccc2)CN1c1c(Cl)cncc1Cl (configuration not stated)
Cc1cccc(C)c1N1C[C@H](Cc2ccc(F)cc2F)C[C@H](C)C1=O
Cc1ccc(CC2CCC(=O)N(C3C(Cl)CCCC3Cl)C2)c(C)c1 (configuration not stated)
COCC1CC(Cc2ccc(F)cc2F)CN(c2c(Cl)cccc2Cl)C1=O (configuration not stated)
Nc1cc(Cl)c(N2CC(Cc3ccc(F)cc3F)CNC2=O)c(Cl)c1 (configuration not stated)
O=C1CCC(Cc2ccc(F)cc2F)CN1c1c(Cl)cc(N2C(=O)CCCC2=O)cc1Cl (configuration not stated)
COC(=O)c1cc(C)c(N2CC(Cc3ccc(F)cc3F)CCC2=O)c(Cl)c1 (configuration not stated)
NCCCc1cc(Cl)c(N2CC(Cc3ccc(F)cc3F)CCC2=O)c(Cl)c1 (configuration not stated)
O=C1CCC(C(Cl)c2ccc(F)cc2F)CN1c1c(Cl)cccc1Cl (configuration not stated)
O=C(Cc1ccccc1)NC1CC(Cl)C(N2CC(Oc3ccc(F)cc3F)CCC2=O)C(Cl)C1 (configuration not stated)
COc1ccccc1CC1COC(=O)N(c2c(Cl)cccc2Cl)C1 (configuration not stated)
Cc1cc(C(=O)O)cc(C)c1N1C[C@@H](Cc2ccc(F)cc2F)C[C@@H](C)C1=O
O=C1CCC(Cc2ccc(F)cc2F)CN1c1c(Cl)cc(NCc2ccccn2)cc1Cl (configuration not stated)
CC(=O)Nc1cc(Cl)c(N2CC(Cc3ccc(F)cc3F)CSC2=O)c(Cl)c1 (configuration not stated)
O=C(Cc1ccccc1)Nc1ccc(Cl)c(N2CC(Cc3ccc(F)cc3F)CSC2=O)c1Cl (configuration not stated)
O=C1CCC(Sc2ccc(Cl)cc2Cl)CN1C1C(Cl)CCCC1Cl (configuration not stated)
